target: SSTR4 (Homo sapiens, UniProt P31391); test: cell-based
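Further: CHO-K1 cells overexpressing SSTR4, reduction of forskolin-driven cAMP after 30 min compound exposure at room temperature, cAMP read by HTRF LANCE Ultra kit.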

SSTR4, sequence (P31391 whole entry): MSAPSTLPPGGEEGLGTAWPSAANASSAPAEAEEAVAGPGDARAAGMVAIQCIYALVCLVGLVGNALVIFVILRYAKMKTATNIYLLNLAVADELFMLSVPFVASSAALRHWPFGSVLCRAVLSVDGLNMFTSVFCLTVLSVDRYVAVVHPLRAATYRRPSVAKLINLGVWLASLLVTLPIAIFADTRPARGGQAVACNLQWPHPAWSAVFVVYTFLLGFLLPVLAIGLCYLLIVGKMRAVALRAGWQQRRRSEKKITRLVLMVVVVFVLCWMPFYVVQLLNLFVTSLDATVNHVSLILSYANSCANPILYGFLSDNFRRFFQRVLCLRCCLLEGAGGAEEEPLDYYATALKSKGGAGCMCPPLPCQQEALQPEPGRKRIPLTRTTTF

Structure (SMILES) | EC50 [nM]
Cc1nnc([C@H](C)c2ccccc2)c(N[C@H]2CCN(C)C2)n1 (single isomer, unassigned) [Example 151] | 316
c1ccc(Cc2nc3ccccc3nc2NCCN2CCCC2)cc1 [Example 1, 3-benzyl-N-(2-(pyrrolidin-1-yl)ethyl)quinoxalin-2-amine] | 166
Cc1cccc(Cc2cc3cccc(C)c3nc2NCCN2CCCC2)c1 [Example 7, 8-methyl-3-(3-methylbenzyl)-N-(2-(pyrrolidin-1-yl)ethyl)quinolin-2-amine] | 661
C[C@H](c1ccc(F)cc1)c1nc(C(=O)NC2CCC2)cnc1NCCN1CCCC1 [Example 9, (R)-N-cyclobutyl-6-(1-(4-fluorophenyl)ethyl)-5-((2-(pyrrolidin-1-yl)ethyl)amino)pyrazine-2-carboxamide] | 81.3
Cc1nc(NCCN2CCCC2)c(C(C)c2ccc(F)cc2)nc1C(=O)O (stereo not drawn) [Example 55] | 13.8
CO[C@H]1C[C@@H](NC(=O)c2nc(C(C)c3ccc(F)cc3)c(NCCN3CCCC3)nc2C)C1 (stereo partly drawn) [Example 56, 6-(1-(4-fluorophenyl)ethyl)-N-(cis-3-methoxycyclobutyl)-3-methyl-5-((2-(pyrrolidin-1-yl)ethyl)amino)pyrazine-2-carboxamide] | 7.59
Cc1nc(NCCN2CCCC2)c(C(C)c2ccc(F)cc2)nc1C(=O)NC1CCCC1 (stereo not drawn) [Example 57, N-cyclopentyl-6-(1-(4-fluorophenyl)ethyl)-3-methyl-5-((2-(pyrrolidin-1-yl)ethyl)amino)pyrazine-2-carboxamide] | 40.7
Cc1nc(NCCN2CCCC2)c(C(C)c2ccc(F)cc2)nc1C(=O)N[C@H]1C[C@H](F)C1 (stereo partly drawn) [Example 76, N-(trans-3-fluorocyclobutyl)-6-(1-(4-fluorophenyl)ethyl)-3-methyl-5-((2-(pyrrolidin-1-yl)ethyl)amino)pyrazine-2-carboxamide] | 7.76
Cc1nc(Cc2ccc(F)cc2)c(NC2CCN(C)CC2)nc1C [Example 79, 3-(4-fluorobenzyl)-5,6-dimethyl-N-(1-methylpiperidin-4-yl)pyrazin-2-amine] | 229
Cc1nc(Cc2ccc(F)cc2)c(NCCN2CCCC2)nc1C [Example 80, 3-(4-fluorobenzyl)-5,6-dimethyl-N-(2-(pyrrolidin-1-yl)ethyl)pyrazin-2-amine] | 19.1
Cc1nc(Cc2ccc(F)cc2)c(N[C@@H]2CCN(C)C2)nc1C [Example 81, (R)-3-(4-fluorobenzyl)-5,6-dimethyl-N-(1-methylpyrrolidin-3-yl)pyrazin-2-amine] | 240
Cc1cccc(Cc2nc(C)c(C)nc2NC2CCN(C)CC2)c1 [Example 82, 5,6-dimethyl-3-(3-methylbenzyl)-N-(1-methylpiperidin-4-yl)pyrazin-2-amine] | 107
Cc1cccc(Cc2nc(C)c(C)nc2NCCN2CCCC2)c1 [Example 83, 5,6-dimethyl-3-(3-methylbenzyl)-N-(2-(pyrrolidin-1-yl)ethyl)pyrazin-2-amine] | 7.76
Cc1cccc(Cc2nc(C)c(C)nc2N[C@@H]2CCN(C)C2)c1 [Example 84, (R)-5,6-dimethyl-3-(3-methylbenzyl)-N-(1-methylpyrrolidin-3-yl)pyrazin-2-amine] | 45.7
Cc1cnc(NCCN2CCCC2)c(C(C)c2ccc(F)cc2)n1 (stereo not drawn) [Example 86, 3-(1-(4-fluorophenyl)ethyl)-5-methyl-N-(2-(pyrrolidin-1-yl)ethyl)pyrazin-2-amine] | 79.4
CCc1cnc(Cc2ccccc2)c(NCCN2CCC2)n1 [Example 89, N-(2-(azetidin-1-yl)ethyl)-3-benzyl-6-ethylpyrazin-2-amine] | 15.8
CC1CN(C)CCC1Nc1nc(C(F)(F)F)cnc1Cc1ccc(F)cc1 (stereo not drawn) [Example 92, N-(1,3-dimethylpiperidin-4-yl)-3-(4-fluorobenzyl)-6-(trifluoromethyl)pyrazin-2-amine] | 115
Fc1ccc(Cc2ncc(C(F)(F)F)nc2NCCN2CCCC2)cc1 [Example 93, 3-(4-fluorobenzyl)-N-(2-(pyrrolidin-1-yl)ethyl)-6-(trifluoromethyl)pyrazin-2-amine] | 77.6
